{"source": "patent US9426996B2", "about": "“Use of benzoxaboroles as volatile antimicrobial agents on meats, plants, or plant parts” (AgroFresh Inc., priority 2013, dated 2016)", "key": {"Botrytis cinerea [1]": {"test_system": "Botrytis cinerea", "experiment": "in vivo volatile assay on onion leaves", "settings": "10 mg/L, 21° C. for 3 days", "experimental": "To test the effect of Compound A (FIG. 1) on vegetables, potato, onion and squash were obtained from a local store, and the surface sterilized with 0.825% sodium hypochlorite (NaOCl). A slice of potato or two leaves of onion were placed in a sterile Petri plate, while whole squash were placed in a sterile 10.8-cup SnapWare airtight container (Model #109842). Each slice of potato was inoculated with 20 μL of a 1×10^5 spores/mL Fusarium sambucinum suspension, while onions were inoculated with 20 μL of a 1×10^6 spores/mL Botrytis cinerea suspension. For inoculation of squash, a small core was removed, and a mycelial plug of Phytophthora capsici was inserted and capped with the core. Compound A was diluted in acetone, and added to a 42.5 mm Whatman #1 filter disk (Cat. No. 1001-042) attached to the inner side of the lid at a rate to achieve a final headspace concentration of 10 mg/L. The acetone was permitted to evaporate for 5 minutes before parafilm sealing the plates or closing the airtight containers. The vegetables were incubated at 21° C. for 3 days, and evaluated for mycelial growth, dry rot, and water-soaked appearance (mm diameter) with results summarized in Table 13."}, "[2]": {"test_system": "Pectobacterium carotovorum", "experiment": "in vitro volatile assay, minimum bactericidal concentration (Example 11)", "type": "cell-based", "settings": "headspace concentration; 23° C. for 48 hours", "experimental": "(§1) 12-Well (6.5 mL volume per well) microtiter plates are used for the in vitro inhibition assay for volatile antimicrobial Compound A (FIG. 1) against numerous bacterial pathogens. A 3-mL volume of Nutrient agar is added to each well and allowed to dry before introducing the pathogen. Escherichia coli, Pectobacterium carotovorum, Xanthomonas axonopodis and Salmonella enterica cell suspensions are adjusted to an optical density of 0.2 to 0.35, and further diluted 1/10, and 15 μL is pipetted to the center of each well and tilted to distribute uniformly. A Whatman #1 filter paper (CAT 1001-0155) is placed on the underside of a polyethylene PCR plate sealing film. […] The films with the treated disks are then applied over the inoculated plates and sealed. Plates are inverted, and incubated at 23° C. for 48 hours. After the incubation period, the bacteria colonies are dislodged in sterile water containing tween 80 (0.001%) and the optical density (OD; 600 nm) is determined Results are summarized in Table 10, where the headspace concentration required to control at least 80% of bacterial growth is reported."}, "Xanthomonas axonopodis": {"test_system": "Xanthomonas axonopodis", "experiment": "in vitro volatile assay, minimum bactericidal concentration (Example 11)", "type": "cell-based", "settings": "headspace concentration; 23° C. for 48 hours", "experimental": "as §1"}, "Salmonella enterica": {"test_system": "Salmonella enterica", "experiment": "in vivo volatile bioassay on fresh beef", "settings": "S. enterica from beef; 100 mg/L headspace; 2 days at 21° C.", "experimental": "(§2) In order to assess the in vivo activity of volatile antimicrobial Compound A, a volatile bioassay is developed to evaluate the control of Escherichia coli and Salmonella enterica on fresh beef. The beef is washed to remove any natural inoculum by rinsing in warm water for 2 minutes. Two strips, single layer, are placed in a sterile 10.8-cup SnapWare airtight container (Model #109842).\n(§3) Each strip is inoculated on the surface by placing 20 μL of either E. coli or S. enterica cell suspensions that are adjusted to an optical density of 0.35 (600 nm), and further diluted 1/10. For determination of efficacy, Compound A powder is introduced into the container with a sublimation device (copper tube heated to 200° C. with fan flow at 0.5 liters per minute (L/min)) at a rate required to achieve a final headspace concentration of 100 mg/L. The containers and their contents are then incubated for 2 days at 21° C. After treatment, the beef is washed, and the wash is collected, serially diluted, plated on nutrient agar, and then incubated for an additional 24 hours at 37° C. Bacterial colonies are counted and expressed as colony forming units (CFU/mL), with the log reduction calculated relative to the control."}, "Escherichia coli": {"test_system": "Escherichia coli", "experiment": "in vivo volatile bioassay on fresh beef", "experimental": "as §2, §3"}, "Alternaria alternata": {"test_system": "Alternaria alternata", "experiment": "combination treatment with 1-MCP on broccoli", "type": "in vivo", "parameters": "scale not given here", "settings": "21° C.", "experimental": "To evaluate a combination treatment of Compound A with 1-methylcyclopropene (1-MCP), an in vivo experiment is performed on broccoli.\nBroccoli flowers are inoculated with 1×10^6 spores/mL of Alternaria alternata and then placed in a 117 L Rubbermaid storage box (Cat #2244) with two small fans placed in opposite ends of the container. A 500 ppb v/v 1-MCP treatment is applied (AgroFresh, Springhouse, Pa.) for 24 hours at 1° C. After completion of the 1-MCP treatment, broccoli florets are removed and placed in a 10.8-cup SnapWare airtight container (Model #109842). Compound A powder is applied in a dose dependent manner to achieve a final headspace concentration of 2 or 0.4 mg/L with a sublimation device (copper tube heated to 200° C. with fan flow at 0.5 L/min), with the end of the tube penetrating through a ½ inch side port in the container that is sealed immediately after the application. The florets are incubated for five days at 10° C. or three days at 21° C., then evaluated for an additional five days at 21° C. for disease incidence and severity."}, "Botrytis cinerea [3]": {"test_system": "Botrytis cinerea", "experiment": "in vitro spore germination and mycelial growth after transfer", "type": "cell-based", "settings": "for Mycelial growth after transfer (%): 3 d after transfer to clean PDA", "experimental": "In order to assess the activity of Compound A as a volatile fungicide, an in vitro assay is developed to evaluate spore germination. 3.5-cm Petri plates are filled with 2 mL of water agar. After cooling, 1 μL of 1×10^5 per mL Botrytis cinerea spore suspension is spot-pipetted into the center of the plate. Plates are inoculated immediately prior to volatile fungicide treatment. A Whatman #1 filter disk (Cat. No. 1001-0155) is placed, in duplicate, on the underside of a plate lid. […] After 24 hours of storage at 23° C., 100 spores are counted for percent germination, where germination is defined as a germ tube that has extended a distance greater than the length of the spore. After counting, treatment is removed, and the plates are resealed. After an additional 24 hours, 100 spores are again counted. Plugs are then transferred to a clean plate containing full-strength PDA and allowed to incubate at 23° C. for an additional three days."}}}
{"smiles": "OB1OCc2cc(F)ccc21", "note": "[Compound A]", "values": [{"measurement": "Water soaked", "setting": "Botrytis cinerea [1]", "value": 0, "unit": "mm"}, {"measurement": "Rate (mg/L) offering at least 80% control, P. carotovorum", "setting": "[2]", "value": 2.2, "unit": "mg/L"}, {"measurement": "Rate (mg/L) offering at least 80% control, X. axonopodis", "setting": "Xanthomonas axonopodis", "value": 4.5, "unit": "mg/L"}, {"measurement": "Log CFU/mL", "setting": "Salmonella enterica", "value": 4.95, "unit": "Log CFU/mL"}, {"measurement": "Log CFU/mL", "setting": "Escherichia coli; E. coli from beef, 100 mg/L headspace, 2 days at 21° C.", "value": 5.09, "unit": "Log CFU/mL"}, {"measurement": "Log reduction", "setting": "Escherichia coli; E. coli from beef, 100 mg/L, relative to the control", "value": 3.17, "unit": "log"}, {"measurement": "reduction of E. coli in percent", "setting": "Escherichia coli; beef, 100 mg/L, relative to the control", "value": "> 99.9", "unit": "%"}, {"measurement": "Color Score", "setting": "Alternaria alternata; 0.4 mg/L", "value": 1.32}, {"measurement": "Severity", "setting": "Alternaria alternata; 0.4 mg/L", "value": 0.29}, {"measurement": "Color Score", "setting": "Alternaria alternata; 2 mg/L", "value": 1.89}, {"measurement": "Severity", "setting": "Alternaria alternata; 2 mg/L", "value": 0.07}, {"measurement": "Spore germination (%)", "setting": "Botrytis cinerea [3]; 0.07 mg/L, 24 h + 24 h after treatment removal", "value": 10.0, "unit": "%"}, {"measurement": "Spore germination (%)", "setting": "Botrytis cinerea [3]; 0.07 mg/L, 24 h treatment", "value": 0.0, "unit": "%"}, {"measurement": "Mycelial growth after transfer (%)", "setting": "Botrytis cinerea [3]; 0.07 mg/L", "value": 60.3, "unit": "%"}, {"measurement": "Spore germination (%)", "setting": "Botrytis cinerea [3]; 0.14 mg/L, 24 h + 24 h after treatment removal", "value": 0.0, "unit": "%"}, {"measurement": "Spore germination (%)", "setting": "Botrytis cinerea [3]; 0.14 mg/L, 24 h treatment", "value": 0.0, "unit": "%"}, {"measurement": "Mycelial growth after transfer (%)", "setting": "Botrytis cinerea [3]; 0.14 mg/L", "value": 53.8, "unit": "%"}, {"measurement": "Spore germination (%)", "setting": "Botrytis cinerea [3]; 0.28 mg/L, 24 h + 24 h after treatment removal", "value": 0.0, "unit": "%"}, {"measurement": "Spore germination (%)", "setting": "Botrytis cinerea [3]; 0.28 mg/L, 24 h treatment", "value": 0.0, "unit": "%"}, {"measurement": "Mycelial growth after transfer (%)", "setting": "Botrytis cinerea [3]; 0.28 mg/L", "value": 51.3, "unit": "%"}, {"measurement": "Spore germination (%)", "setting": "Botrytis cinerea [3]; 0.56 mg/L, 24 h + 24 h after treatment removal", "value": 0.0, "unit": "%"}, {"measurement": "Spore germination (%)", "setting": "Botrytis cinerea [3]; 0.56 mg/L, 24 h treatment", "value": 0.0, "unit": "%"}, {"measurement": "Mycelial growth after transfer (%)", "setting": "Botrytis cinerea [3]; 0.56 mg/L", "value": 43.3, "unit": "%"}, {"measurement": "Spore germination (%)", "setting": "Botrytis cinerea [3]; 71.4 mg/L, 24 h + 24 h after treatment removal", "value": 0.0, "unit": "%"}, {"measurement": "Spore germination (%)", "setting": "Botrytis cinerea [3]; 71.4 mg/L, 24 h treatment", "value": 0.0, "unit": "%"}, {"measurement": "Mycelial growth after transfer (%)", "setting": "Botrytis cinerea [3]; 71.4 mg/L", "value": 0.0, "unit": "%"}, {"measurement": "Spore germination (%)", "setting": "Botrytis cinerea [3]; 142.9 mg/L, 24 h + 24 h after treatment removal", "value": 0.0, "unit": "%"}, {"measurement": "Spore germination (%)", "setting": "Botrytis cinerea [3]; 142.9 mg/L, 24 h treatment", "value": 0.0, "unit": "%"}, {"measurement": "Mycelial growth after transfer (%)", "setting": "Botrytis cinerea [3]; 142.9 mg/L", "value": 0.0, "unit": "%"}, {"measurement": "fungicidal or fungistatic effect", "setting": "Botrytis cinerea [3]; treated spores after the compound has been removed", "value": "fungicidal effect"}]}
